Blank lines part the entries; values can stand above or below the compound they belong to.
Legend:
[1] = Deionized water-solidifying test (base for solidifying moisture-containing compositions); assay type: physicochemical; conditions: 25° C.; for (Appearance) / Condition: after 20 hours from the dissolution; for Time of solidification completed / Time of solidification started: monitored for 2 hours
From the text: After completing the dissolution, each test solution was further stirred for four minutes and then the stirring was stopped. Successively, each test solution was left to stand and a solidification of the test solution by the crystallization of hydrous crystalline maltose was monitored macroscopically for two hours. In the cases of the solidified samples, the time of starting the crystallization and that of completing the solidification were checked. (However, the test solution dissolving 18.8 g of crystal was stopped stirring at three minutes after the dissolution because the crystallization of hydrous crystalline maltose was started immediately.) After monitoring macroscopically for two hours, each vessel containing any one of the sample solutions was closed and further left to stand for 18 hours. Then, the condition (appearance) of the test samples after 20 hours from the dissolution was monitored macroscopically and evaluated by the following three phases: (1) clear solution; (2) clouded solution; and (3) solidified. The samples prepared by using 10.0 g, 11.5 g, 13.3 g, or 18.8 g of the anhydrous crystalline α-maltose used in Example 2, as a substitute of the test samples, were treated by the same procedure as controls. The test was carried out in a room where a temperature was kept at 25° C. The results of each sample after 2 and 20 hours are shown in Table 5 and FIG. 13, and Table 6 and FIG. 14, respectively.

[2] = mercury filling method; for Intrusion volume: initial pressure 15 kPa; for Median pore diameter / Mode pore diameter: control values originate from space between crystal particles, not pores
[3] = Hygroscopicity test (moisture content under controlled relative humidity); assay type: physicochemical; conditions: 27° C.
Procedure: Moisture contents of the samples at respective periods were measured based on the change of weight from the start of the test. The moisture contents of the samples at the start of the test were measured by Karl Fischer's method.

[4] = Specific surface area by nitrogen adsorption isotherms (BET); assay type: physicochemical; conditions: BET method, listed as anhydrous crystalline β-maltose of Control 3
Procedure: About 3 g of the anhydrous crystalline β-maltose, obtained in Example 1, was dried in the apparatus under a reduced pressure at about 40° C. for about 15 hours as a pretreatment, and then used for the measurement of specific surface area by the nitrogen adsorption isotherms. The result was analyzed by conventional BET (Brunnauer, Emmet, and Teller) method.

[5] = 8.2 g dissolved in 10 g deionized water (45.0%)
[6] = 8.2 g dissolved in 10 g deionized water (calc. conc. 45.0%)
[7] = 10.0 g dissolved in 10 g deionized water (50.0%)
[8] = 10.0 g dissolved in 10 g deionized water (calc. conc. 50.0%)
[9] = 11.5 g dissolved in 10 g deionized water (53.5%)
[10] = 11.5 g dissolved in 10 g deionized water (calc. conc. 53.5%)
[11] = 13.3 g dissolved in 10 g deionized water (calc. conc. 57.0%)
[12] = 18.8 g dissolved in 10 g deionized water (calc. conc. 65.0%)

SMILES: OC[C@H]1O[C@H](O[C@H]2[C@H](O)[C@@H](O)[C@H](O)O[C@@H]2CO)[C@H](O)[C@@H](O)[C@@H]1O [Anhydrous crystalline β-maltose converted by the ethanol tre]
(Appearance) [1, 5]: (Clear solution) | Condition [1, 5]: Not solidified | Time of solidification completed [1, 6]: Not solidified | Time of solidification started [1, 6]: Not solidified | (Appearance) [1, 7]: (Clear solution) | Condition [1, 7]: Not solidified | Time of solidification completed [1, 8]: Not solidified | Time of solidification started [1, 8]: Not solidified | (Appearance) [1, 9]: (Clouded solution) | Condition [1, 9]: Not solidified | Time of solidification completed [1, 10]: Not solidified | Time of solidification started [1, 10]: Not solidified | Condition ([1]; 13.3 g dissolved in 10 g deionized water (57.0%)): Solidified | Time of solidification completed [1, 11]: 8.0 min | Time of solidification started [1, 11]: 6.0 min | Condition ([1]; 18.8 g dissolved in 10 g deionized water (65.0%)): Solidified | Time of solidification completed [1, 12]: 3.5 min | Time of solidification started [1, 12]: 3.0 min | Intrusion volume [2]: 1.05 mL/g | Median pore diameter [2]: 1.26 μm | Mode pore diameter [2]: 1.44 μm

Moisture content of samples ([3]; RH 47% (lithium nitrate), 0 hour (start, Karl Fischer)): 5.24 %, w/w | Moisture content of samples ([3]; RH 47% (lithium nitrate), 2 hours): 5.23 %, w/w | Moisture content of samples ([3]; RH 47% (lithium nitrate), 4 hours): 5.23 %, w/w | Moisture content of samples ([3]; RH 47% (lithium nitrate), 24 hours): 5.23 %, w/w | Moisture content of samples ([3]; RH 47% (lithium nitrate), 96 hours): 5.26 %, w/w | Moisture content of samples ([3]; RH 47% (lithium nitrate), 192 hours): 5.23 %, w/w | Moisture content of samples ([3]; RH 58% (sodium bromide), 0 hour (start, Karl Fischer)): 5.24 %, w/w | Moisture content of samples ([3]; RH 58% (sodium bromide), 2 hours): 5.22 %, w/w | Moisture content of samples ([3]; RH 58% (sodium bromide), 4 hours): 5.25 %, w/w | Moisture content of samples ([3]; RH 58% (sodium bromide), 6 hours): 5.26 %, w/w | Moisture content of samples ([3]; RH 58% (sodium bromide), 8 hours): 5.25 %, w/w | Moisture content of samples ([3]; RH 58% (sodium bromide), 24 hours): 5.25 %, w/w | Moisture content of samples ([3]; RH 58% (sodium bromide), 96 hours): 5.28 %, w/w | Moisture content of samples ([3]; RH 58% (sodium bromide), 192 hours): 5.26 %, w/w | Moisture content of samples ([3]; RH 75% (sodium chloride), 0 hour (start, Karl Fischer)): 5.24 %, w/w | Moisture content of samples ([3]; RH 75% (sodium chloride), 2 hours): 5.21 %, w/w | Moisture content of samples ([3]; RH 75% (sodium chloride), 4 hours): 5.25 %, w/w | Moisture content of samples ([3]; RH 75% (sodium chloride), 6 hours): 5.25 %, w/w | Moisture content of samples ([3]; RH 75% (sodium chloride), 8 hours): 5.25 %, w/w | Moisture content of samples ([3]; RH 75% (sodium chloride), 24 hours): 5.25 %, w/w | Moisture content of samples ([3]; RH 75% (sodium chloride), 96 hours): 5.29 %, w/w | Moisture content of samples ([3]; RH 75% (sodium chloride), 192 hours): 5.23 %, w/w | Moisture content of samples ([3]; RH 90% (barium chloride), 0 hour (start, Karl Fischer)): 5.24 %, w/w | Moisture content of samples ([3]; RH 90% (barium chloride), 2 hours): 5.26 %, w/w | Moisture content of samples ([3]; RH 90% (barium chloride), 4 hours): 5.27 %, w/w | Moisture content of samples ([3]; RH 90% (barium chloride), 6 hours): 5.26 %, w/w | Moisture content of samples ([3]; RH 90% (barium chloride), 8 hours): 5.26 %, w/w | Moisture content of samples ([3]; RH 90% (barium chloride), 24 hours): 5.24 %, w/w | Moisture content of samples ([3]; RH 90% (barium chloride), 96 hours): 5.61 %, w/w | Moisture content of samples ([3]; RH 90% (barium chloride), 192 hours): 5.36 %, w/w
SMILES: OCC1OC(OC2C(CO)OC(O)C(O)C2O)C(O)C(O)C1O (stereo not drawn) [HC β-Mal (Control 1), Hydrous crystalline β-maltose]

SMILES: OC[C@H]1O[C@H](O[C@H]2[C@H](O)[C@@H](O)[C@H](O)O[C@@H]2CO)[C@H](O)[C@@H](O)[C@@H]1O [Anhydrous crystalline β-maltose (Control 3)]
Intrusion volume [2]: (No pore) | Median pore diameter [2]: 14.70 μm | Mode pore diameter [2]: 25.70 μm

SMILES: OC[C@H]1O[C@H](O[C@H]2[C@H](O)[C@@H](O)[C@H](O)O[C@@H]2CO)[C@H](O)[C@@H](O)[C@@H]1O [Anhydrous crystalline β-maltose]
Moisture content of samples ([3]; RH 47% (lithium nitrate), 0 hour (start, Karl Fischer), listed as AC β-Mal (Control 3)): 0.24 %, w/w | Moisture content of samples ([3]; RH 47% (lithium nitrate), 2 hours, listed as AC β-Mal (Control 3)): 0.32 %, w/w | Moisture content of samples ([3]; RH 47% (lithium nitrate), 4 hours, listed as AC β-Mal (Control 3)): 0.47 %, w/w | Moisture content of samples ([3]; RH 47% (lithium nitrate), 24 hours, listed as AC β-Mal (Control 3)): 0.54 %, w/w | Moisture content of samples ([3]; RH 47% (lithium nitrate), 96 hours, listed as AC β-Mal (Control 3)): 0.61 %, w/w | Moisture content of samples ([3]; RH 47% (lithium nitrate), 192 hours, listed as AC β-Mal (Control 3)): 0.47 %, w/w | Moisture content of samples ([3]; RH 58% (sodium bromide), 0 hour (start, Karl Fischer), listed as AC β-Mal (Control 3)): 0.24 %, w/w | Moisture content of samples ([3]; RH 58% (sodium bromide), 2 hours, listed as AC β-Mal (Control 3)): 4.68 %, w/w | Moisture content of samples ([3]; RH 58% (sodium bromide), 4 hours, listed as AC β-Mal (Control 3)): 6.92 %, w/w | Moisture content of samples ([3]; RH 58% (sodium bromide), 6 hours, listed as AC β-Mal (Control 3)): 6.71 %, w/w | Moisture content of samples ([3]; RH 58% (sodium bromide), 8 hours, listed as AC β-Mal (Control 3)): 6.28 %, w/w | Moisture content of samples ([3]; RH 58% (sodium bromide), 24 hours, listed as AC β-Mal (Control 3)): 5.63 %, w/w | Moisture content of samples ([3]; RH 58% (sodium bromide), 96 hours, listed as AC β-Mal (Control 3)): 5.48 %, w/w | Moisture content of samples ([3]; RH 58% (sodium bromide), 192 hours, listed as AC β-Mal (Control 3)): 5.42 %, w/w | Moisture content of samples ([3]; RH 75% (sodium chloride), 0 hour (start, Karl Fischer), listed as AC β-Mal (Control 3)): 0.24 %, w/w | Moisture content of samples ([3]; RH 75% (sodium chloride), 2 hours, listed as AC β-Mal (Control 3)): 6.86 %, w/w | Moisture content of samples ([3]; RH 75% (sodium chloride), 4 hours, listed as AC β-Mal (Control 3)): 6.76 %, w/w | Moisture content of samples ([3]; RH 75% (sodium chloride), 6 hours, listed as AC β-Mal (Control 3)): 6.47 %, w/w | Moisture content of samples ([3]; RH 75% (sodium chloride), 8 hours, listed as AC β-Mal (Control 3)): 6.34 %, w/w | Moisture content of samples ([3]; RH 75% (sodium chloride), 24 hours, listed as AC β-Mal (Control 3)): 6.16 %, w/w | Moisture content of samples ([3]; RH 75% (sodium chloride), 96 hours, listed as AC β-Mal (Control 3)): 6.01 %, w/w | Moisture content of samples ([3]; RH 75% (sodium chloride), 192 hours, listed as AC β-Mal (Control 3)): 5.93 %, w/w | Moisture content of samples ([3]; RH 90% (barium chloride), 0 hour (start, Karl Fischer), listed as AC β-Mal (Control 3)): 0.24 %, w/w | Moisture content of samples ([3]; RH 90% (barium chloride), 2 hours, listed as AC β-Mal (Control 3)): 7.28 %, w/w | Moisture content of samples ([3]; RH 90% (barium chloride), 4 hours, listed as AC β-Mal (Control 3)): 7.66 %, w/w | Moisture content of samples ([3]; RH 90% (barium chloride), 6 hours, listed as AC β-Mal (Control 3)): 7.45 %, w/w | Moisture content of samples ([3]; RH 90% (barium chloride), 8 hours, listed as AC β-Mal (Control 3)): 7.45 %, w/w | Moisture content of samples ([3]; RH 90% (barium chloride), 24 hours, listed as AC β-Mal (Control 3)): 8.46 %, w/w | Moisture content of samples ([3]; RH 90% (barium chloride), 96 hours, listed as AC β-Mal (Control 3)): 10.20 %, w/w | Moisture content of samples ([3]; RH 90% (barium chloride), 192 hours, listed as AC β-Mal (Control 3)): 9.12 %, w/w | Specific surface area [4]: 0.82 m^2/g

From patent US8168779B2, “Anhydrous crystalline β-maltose, its preparation and uses” (priority 2006, dated 2012)
